The source made the active and inactive calls. No cut-off for these calls is given here.
Legend:
PC-12 [1] = test: Neuroprotective activity against MPP+-induced rat PC12 cell death assessed as upregulation of Prkce gene expression at 1 to 10 uM preincubated for 1 hr followed by MPP+ addition and measured after 24 hrs by RNA sequencing analysis relative to control; type: functional; conditions: dose 1-10 µM; time 25 hrs
PC-12 [2] = test: Neuroprotective activity against MPP+-induced rat PC12 cell death assessed as upregulation of Tars2 gene expression at 1 to 10 uM preincubated for 1 hr followed by MPP+ addition and measured after 24 hrs by RNA sequencing analysis relative to control; type: functional; conditions: dose 1-10 µM; time 25 hrs
PC-12 [3] = test: Neuroprotective activity against MPP+-induced rat PC12 cell death assessed as downregulation of Sesn2 gene expression at 1 to 10 uM preincubated for 1 hr followed by MPP+ addition and measured after 24 hrs by RNA sequencing analysis relative to control; type: functional; conditions: dose 1-10 µM; time 25 hrs
PC-12 [4] = test: Neuroprotective activity against MPP+-induced rat PC12 cell death assessed as upregulation of Mtr gene expression at 1 to 10 uM preincubated for 1 hr followed by MPP+ addition and measured after 24 hrs by RNA sequencing analysis relative to control; type: functional; conditions: dose 1-10 µM; time 25 hrs
PC-12 [5] = test: Neuroprotective activity against MPP+-induced rat PC12 cell death assessed as upregulation of Scn4b gene expression at 1 to 10 uM preincubated for 1 hr followed by MPP+ addition and measured after 24 hrs by RNA sequencing analysis relative to control; type: functional; conditions: dose 1-10 µM; time 25 hrs
PC-12 [6] = test: Neuroprotective activity against MPP+-induced rat PC12 cell death assessed as downregulation of Vnn1 gene expression at 1 to 10 uM preincubated for 1 hr followed by MPP+ addition and measured after 24 hrs by RNA sequencing analysis relative to control; type: functional; conditions: dose 1-10 µM; time 25 hrs
PC-12 [7] = test: Neuroprotective activity against MPP+-induced rat PC12 cell death assessed as upregulation of Plau gene expression at 1 to 10 uM preincubated for 1 hr followed by MPP+ addition and measured after 24 hrs by RNA sequencing analysis relative to control; type: functional; conditions: dose 1-10 µM; time 25 hrs
PC-12 [8] = test: Neuroprotective activity against MPP+-induced rat PC12 cell death assessed as upregulation of Gpt gene expression at 1 to 10 uM preincubated for 1 hr followed by MPP+ addition and measured after 24 hrs by RNA sequencing analysis relative to control; type: functional; conditions: dose 1-10 µM; time 25 hrs
PC-12 [9] = test: Neuroprotective activity against MPP+-induced rat PC12 cell death assessed as upregulation of Rora gene expression at 1 to 10 uM preincubated for 1 hr followed by MPP+ addition and measured after 24 hrs by RNA sequencing analysis relative to control; type: functional; conditions: dose 1-10 µM; time 25 hrs
PC-12 [10] = test: Neuroprotective activity against MPP+-induced rat PC12 cell death assessed as upregulation of Ppial4d gene expression at 1 to 10 uM preincubated for 1 hr followed by MPP+ addition and measured after 24 hrs by RNA sequencing analysis relative to control; type: functional; conditions: dose 1-10 µM; time 25 hrs
PC-12 [11] = test: Neuroprotective activity against MPP+-induced rat PC12 cell death assessed as increase in cell viability preincubated for 1 hr followed by MPP+ addition and measured after 24 hrs by CCK-8 assay; type: functional, cell-based; conditions: dose 1-20 µM, time 25.0 hrs
PC-12 [12] = test: Neuroprotective activity against MPP+-induced rat PC12 cell death assessed as downregulation of Cflar gene expression at 1 to 10 uM preincubated for 1 hr followed by MPP+ addition and measured after 24 hrs by RNA sequencing analysis relative to control; type: functional; conditions: dose 1-10 µM; time 25 hrs
PC-12 [13] = test: Neuroprotective activity against MPP+-induced rat PC12 cell death assessed as downregulation of Anxa1 gene expression at 1 to 10 uM preincubated for 1 hr followed by MPP+ addition and measured after 24 hrs by RNA sequencing analysis relative to control; type: functional; conditions: dose 1-10 µM; time 25 hrs
PC-12 [14] = test: Neuroprotective activity against MPP+-induced rat PC12 cell death assessed as downregulation of Bdnf gene expression at 1 to 10 uM preincubated for 1 hr followed by MPP+ addition and measured after 24 hrs by RNA sequencing analysis relative to control; type: functional; conditions: dose 1-10 µM; time 25 hrs
PC-12 [15] = test: Neuroprotective activity against MPP+-induced rat PC12 cell death assessed as upregulation of Mmp2 gene expression at 1 to 10 uM preincubated for 1 hr followed by MPP+ addition and measured after 24 hrs by RNA sequencing analysis relative to control; type: functional; conditions: dose 1-10 µM; time 25 hrs
PC-12 [16] = test: Neuroprotective activity against MPP+-induced rat PC12 cell death assessed as upregulation of Cyp2d4 gene expression at 1 to 10 uM preincubated for 1 hr followed by MPP+ addition and measured after 24 hrs by RNA sequencing analysis relative to control; type: functional; conditions: dose 1-10 µM; time 25 hrs
PC-12 [17] = test: Neuroprotective activity against MPP+-induced rat PC12 cell death assessed as upregulation of Rab5al1 gene expression at 1 to 10 uM preincubated for 1 hr followed by MPP+ addition and measured after 24 hrs by RNA sequencing analysis relative to control; type: functional; conditions: dose 1-10 µM; time 25 hrs
PC-12 [18] = test: Neuroprotective activity against MPP+-induced rat PC12 cell death assessed as increase in cell viability at […] preincubated for 1 hr followed by MPP+ addition and measured after 24 hrs by CCK-8 assay; type: functional, cell-based; conditions: time 25.0 hrs
PC-12 [19] = test: Neuroprotective activity against MPP+-induced rat PC12 cell death assessed as upregulation of Tnr gene expression at 1 to 10 uM preincubated for 1 hr followed by MPP+ addition and measured after 24 hrs by RNA sequencing analysis relative to control; type: functional; conditions: dose 1-10 µM; time 25 hrs
PC-12 [20] = test: Neuroprotective activity against MPP+-induced rat PC12 cell death assessed as upregulation of Cebpd gene expression at 1 to 10 uM preincubated for 1 hr followed by MPP+ addition and measured after 24 hrs by RNA sequencing analysis relative to control; type: functional; conditions: dose 1-10 µM; time 25 hrs
PC-12 [21] = test: Neuroprotective activity against MPP+-induced rat PC12 cell death assessed as downregulation of Ifitm3 gene expression at 1 to 10 uM preincubated for 1 hr followed by MPP+ addition and measured after 24 hrs by RNA sequencing analysis relative to control; type: functional; conditions: dose 1-10 µM; time 25 hrs
PC-12 [22] = test: Neuroprotective activity against MPP+-induced rat PC12 cell death assessed as downregulation of IL33 gene expression at 1 to 10 uM preincubated for 1 hr followed by MPP+ addition and measured after 24 hrs by RNA sequencing analysis relative to control; type: functional; conditions: dose 1-10 µM; time 25 hrs
PC-12 [23] = test: Neuroprotective activity against MPP+-induced rat PC12 cell death assessed as downregulation of Xiap gene expression at 1 to 10 uM preincubated for 1 hr followed by MPP+ addition and measured after 24 hrs by RNA sequencing analysis relative to control; type: functional; conditions: dose 1-10 µM; time 25 hrs
PC-12 [24] = test: Neuroprotective activity against MPP+-induced rat PC12 cell death assessed as downregulation of Cyp2b1 gene expression at 1 to 10 uM preincubated for 1 hr followed by MPP+ addition and measured after 24 hrs by RNA sequencing analysis relative to control; type: functional; conditions: dose 1-10 µM; time 25 hrs
PC-12 [25] = test: Neuroprotective activity against MPP+-induced rat PC12 cell death assessed as upregulation of Des gene expression at 1 to 10 uM preincubated for 1 hr followed by MPP+ addition and measured after 24 hrs by RNA sequencing analysis relative to control; type: functional; conditions: dose 1-10 µM; time 25 hrs
PC-12 [26] = test: Neuroprotective activity against MPP+-induced rat PC12 cell death assessed as upregulation of Nat1 gene expression at 1 to 10 uM preincubated for 1 hr followed by MPP+ addition and measured after 24 hrs by RNA sequencing analysis relative to control; type: functional; conditions: dose 1-10 µM; time 25 hrs
PC-12 [27] = test: Neuroprotective activity against MPP+-induced rat PC12 cell death assessed as upregulation of Insr gene expression at 1 to 10 uM preincubated for 1 hr followed by MPP+ addition and measured after 24 hrs by RNA sequencing analysis relative to control; type: functional; conditions: dose 1-10 µM; time 25 hrs

SMILES: C=C1CC[C@H]2C(C)(C)[C@@H](O)C[C@@H](O)[C@]2(C)[C@H]1CO
- log2FC (PC-12 [1]): >0.4
- log2FC (PC-12 [2]): >0.4
- log2FC (PC-12 [3]): >0.4
- log2FC (PC-12 [4]): >0.4
- log2FC (PC-12 [5]): >0.4
- log2FC (PC-12 [6]): >0.4
- log2FC (PC-12 [7]): >0.4
- log2FC (PC-12 [8]): >0.4
- log2FC (PC-12 [9]): >0.4
- log2FC (PC-12 [10]): >0.4
- Activity (PC-12 [11]): Dose-Dependent Effect
- log2FC (PC-12 [12]): >0.4
- log2FC (PC-12 [13]): >0.4
- log2FC (PC-12 [14]): >0.4
- log2FC (PC-12 [15]): >0.4
- log2FC (PC-12 [16]): >0.4
- log2FC (PC-12 [17]): >0.4
- Activity (PC-12 [18]): Active
- log2FC (PC-12 [19]): >0.4
- log2FC (PC-12 [20]): >0.4
- log2FC (PC-12 [21]): >0.4
- log2FC (PC-12 [22]): >0.4
- log2FC (PC-12 [23]): >0.4
- log2FC (PC-12 [24]): >0.4
- log2FC (PC-12 [25]): >0.4
- log2FC (PC-12 [26]): >0.4
- log2FC (PC-12 [27]): >0.4

Source: ChEMBL document CHEMBL5584358, “Fungal Coculture of Herpotrichia sp. and Trametes versicolor Induces Production of Diverse Metabolites with Anti-Parkinson's Neuroprotective Activity” (J Nat Prod, 2024)
